From ChEMBL document CHEMBL1201862, “PubChem BioAssay data set” (2004)
Activity calls are given as the source filed them.

Columns and labels:
Bcl-2-related protein A1 = target: T1, Bcl-2-related protein A1 (Mus musculus, UniProt Q07440); assay type: functional;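 note: confirmatory dose–response counterscreen on Bfl-1, used to check hits from a UBC13 polyubiquitin inhibitor campaign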
T1 sequence (Q07440 whole entry): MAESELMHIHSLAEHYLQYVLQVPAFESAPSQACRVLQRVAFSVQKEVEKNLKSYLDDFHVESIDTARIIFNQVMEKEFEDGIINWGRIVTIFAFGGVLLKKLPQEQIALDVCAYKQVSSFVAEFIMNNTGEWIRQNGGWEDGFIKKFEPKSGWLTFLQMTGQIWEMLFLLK

[1] = target: T2, Ubiquitin-conjugating enzyme E2 N (Homo sapiens, UniProt P61088); assay type: functional
T2 sequence (P61088 whole entry): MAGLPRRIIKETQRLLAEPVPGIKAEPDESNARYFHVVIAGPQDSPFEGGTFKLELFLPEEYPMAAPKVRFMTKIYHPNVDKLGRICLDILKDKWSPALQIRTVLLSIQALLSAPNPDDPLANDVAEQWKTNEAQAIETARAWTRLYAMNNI

[2] = target: T2, Ubiquitin-conjugating enzyme E2 N; assay type: functional; remark: listed apart in the source
[3] = target: T3, Tyrosine-protein phosphatase non-receptor type 7 (Homo sapiens, UniProt P35236); assay type: functional
T3 sequence (P35236 whole entry): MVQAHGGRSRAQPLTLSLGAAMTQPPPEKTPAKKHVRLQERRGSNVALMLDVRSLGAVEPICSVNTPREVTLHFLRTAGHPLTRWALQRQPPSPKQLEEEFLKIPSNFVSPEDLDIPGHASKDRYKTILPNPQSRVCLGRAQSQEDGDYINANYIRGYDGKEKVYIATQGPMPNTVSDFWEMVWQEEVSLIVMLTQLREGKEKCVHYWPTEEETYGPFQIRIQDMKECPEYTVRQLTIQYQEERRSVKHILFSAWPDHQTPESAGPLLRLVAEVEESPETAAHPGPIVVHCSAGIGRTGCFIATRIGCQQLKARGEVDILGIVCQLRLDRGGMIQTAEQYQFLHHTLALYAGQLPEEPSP

[4] = target: T4, Corticotropin-releasing factor receptor 2/Corticotropin-releasing factor-binding protein (Homo sapiens, UniProt P24387+Q13324); test: activators of CRF receptor 2 with binding protein – uHTS hits, confirmation (AID 602473); assay type: functional; conditions: read-out: EC50_Mean
T4 sequence (Q13324 whole entry): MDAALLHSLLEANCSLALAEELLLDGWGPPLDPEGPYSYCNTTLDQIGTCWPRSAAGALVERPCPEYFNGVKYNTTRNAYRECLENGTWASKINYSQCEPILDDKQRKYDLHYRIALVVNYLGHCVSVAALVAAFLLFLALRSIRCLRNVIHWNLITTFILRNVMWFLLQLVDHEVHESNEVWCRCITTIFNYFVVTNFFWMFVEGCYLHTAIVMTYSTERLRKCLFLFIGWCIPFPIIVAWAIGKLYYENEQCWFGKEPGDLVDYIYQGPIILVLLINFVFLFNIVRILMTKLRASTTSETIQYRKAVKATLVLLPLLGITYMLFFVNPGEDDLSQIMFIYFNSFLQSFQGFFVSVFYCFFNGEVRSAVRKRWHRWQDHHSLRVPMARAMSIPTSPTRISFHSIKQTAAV
T4 sequence (P24387 whole entry): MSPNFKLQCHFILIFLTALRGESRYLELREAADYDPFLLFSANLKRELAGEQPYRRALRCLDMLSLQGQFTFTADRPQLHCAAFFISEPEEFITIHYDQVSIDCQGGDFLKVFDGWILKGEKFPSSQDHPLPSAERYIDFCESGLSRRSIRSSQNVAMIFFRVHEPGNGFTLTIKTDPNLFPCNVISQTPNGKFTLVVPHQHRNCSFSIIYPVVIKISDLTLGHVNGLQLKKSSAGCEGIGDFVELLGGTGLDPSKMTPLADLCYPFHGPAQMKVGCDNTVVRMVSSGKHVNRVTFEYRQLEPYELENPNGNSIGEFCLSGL

[5] = target: T5, Tyrosine-protein phosphatase non-receptor type 22 (Homo sapiens, UniProt Q9Y2R2); assay type: functional
T5 sequence (Q9Y2R2 whole entry): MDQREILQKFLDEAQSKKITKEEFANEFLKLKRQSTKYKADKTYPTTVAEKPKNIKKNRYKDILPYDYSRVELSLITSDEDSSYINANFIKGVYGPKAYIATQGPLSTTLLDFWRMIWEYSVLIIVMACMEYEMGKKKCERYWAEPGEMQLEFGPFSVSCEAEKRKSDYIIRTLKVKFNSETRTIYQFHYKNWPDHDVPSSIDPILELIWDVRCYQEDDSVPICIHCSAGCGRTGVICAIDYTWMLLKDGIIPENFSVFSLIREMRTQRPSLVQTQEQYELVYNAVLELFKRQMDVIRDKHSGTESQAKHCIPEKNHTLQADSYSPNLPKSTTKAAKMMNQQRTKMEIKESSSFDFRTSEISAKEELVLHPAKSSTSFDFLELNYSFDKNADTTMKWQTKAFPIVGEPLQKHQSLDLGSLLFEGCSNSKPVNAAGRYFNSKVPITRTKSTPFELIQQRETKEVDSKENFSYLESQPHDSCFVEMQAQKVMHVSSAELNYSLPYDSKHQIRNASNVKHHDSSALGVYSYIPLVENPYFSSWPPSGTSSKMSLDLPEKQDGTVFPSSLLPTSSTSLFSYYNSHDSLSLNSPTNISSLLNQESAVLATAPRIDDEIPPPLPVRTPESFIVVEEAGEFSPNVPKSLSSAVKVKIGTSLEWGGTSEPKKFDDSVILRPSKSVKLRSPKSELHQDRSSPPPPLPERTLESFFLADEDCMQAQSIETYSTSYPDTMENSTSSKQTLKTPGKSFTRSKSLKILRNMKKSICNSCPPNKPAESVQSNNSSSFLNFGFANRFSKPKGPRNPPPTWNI

[6] = target: T5, Tyrosine-protein phosphatase non-receptor type 22; assay type: functional; remark: listed apart in the source
[7] = target: Lysine-specific demethylase 4C (Homo sapiens, UniProt Q9H3R0); test: GASC-1 (JMJD2C) histone demethylase inhibitors, dose response, biochemical, DELFIA europium, cherry-picked samples (AID 488835); assay type: functional
Sequence of Lysine-specific demethylase 4C (Q9H3R0 whole entry): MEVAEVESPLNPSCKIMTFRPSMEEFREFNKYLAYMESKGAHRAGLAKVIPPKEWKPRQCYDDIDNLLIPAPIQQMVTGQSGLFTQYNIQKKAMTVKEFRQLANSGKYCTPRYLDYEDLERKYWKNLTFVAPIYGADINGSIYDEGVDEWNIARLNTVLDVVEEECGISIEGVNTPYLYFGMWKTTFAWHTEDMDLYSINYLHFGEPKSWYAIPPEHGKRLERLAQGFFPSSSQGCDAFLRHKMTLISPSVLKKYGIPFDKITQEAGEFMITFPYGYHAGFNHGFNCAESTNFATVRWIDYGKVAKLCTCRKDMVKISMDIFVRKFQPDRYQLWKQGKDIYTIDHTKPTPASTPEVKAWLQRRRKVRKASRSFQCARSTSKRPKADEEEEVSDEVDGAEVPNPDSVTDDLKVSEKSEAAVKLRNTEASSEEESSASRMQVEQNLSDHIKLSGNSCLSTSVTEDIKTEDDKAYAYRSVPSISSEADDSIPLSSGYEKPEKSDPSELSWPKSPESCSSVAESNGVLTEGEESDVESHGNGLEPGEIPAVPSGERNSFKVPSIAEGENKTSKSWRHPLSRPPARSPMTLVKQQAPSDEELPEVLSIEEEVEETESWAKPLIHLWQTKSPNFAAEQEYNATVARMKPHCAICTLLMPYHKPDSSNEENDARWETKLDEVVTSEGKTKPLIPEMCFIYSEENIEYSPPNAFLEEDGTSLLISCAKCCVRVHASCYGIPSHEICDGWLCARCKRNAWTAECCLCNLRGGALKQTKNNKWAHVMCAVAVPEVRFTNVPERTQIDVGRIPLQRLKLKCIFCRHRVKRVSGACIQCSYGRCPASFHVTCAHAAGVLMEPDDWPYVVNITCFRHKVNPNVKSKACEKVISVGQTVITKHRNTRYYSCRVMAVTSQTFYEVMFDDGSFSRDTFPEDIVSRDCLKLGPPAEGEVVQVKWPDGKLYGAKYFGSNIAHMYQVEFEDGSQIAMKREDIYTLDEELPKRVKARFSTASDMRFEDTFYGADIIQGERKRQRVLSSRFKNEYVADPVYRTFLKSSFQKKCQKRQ

[8] = target: Protein-arginine deiminase type-4 (Homo sapiens, UniProt Q9UM07); test: human PAD4 inhibitor potency, dose response, biochemical, fluorescence readout (AID 492970)
Sequence of Protein-arginine deiminase type-4 (Q9UM07 whole entry): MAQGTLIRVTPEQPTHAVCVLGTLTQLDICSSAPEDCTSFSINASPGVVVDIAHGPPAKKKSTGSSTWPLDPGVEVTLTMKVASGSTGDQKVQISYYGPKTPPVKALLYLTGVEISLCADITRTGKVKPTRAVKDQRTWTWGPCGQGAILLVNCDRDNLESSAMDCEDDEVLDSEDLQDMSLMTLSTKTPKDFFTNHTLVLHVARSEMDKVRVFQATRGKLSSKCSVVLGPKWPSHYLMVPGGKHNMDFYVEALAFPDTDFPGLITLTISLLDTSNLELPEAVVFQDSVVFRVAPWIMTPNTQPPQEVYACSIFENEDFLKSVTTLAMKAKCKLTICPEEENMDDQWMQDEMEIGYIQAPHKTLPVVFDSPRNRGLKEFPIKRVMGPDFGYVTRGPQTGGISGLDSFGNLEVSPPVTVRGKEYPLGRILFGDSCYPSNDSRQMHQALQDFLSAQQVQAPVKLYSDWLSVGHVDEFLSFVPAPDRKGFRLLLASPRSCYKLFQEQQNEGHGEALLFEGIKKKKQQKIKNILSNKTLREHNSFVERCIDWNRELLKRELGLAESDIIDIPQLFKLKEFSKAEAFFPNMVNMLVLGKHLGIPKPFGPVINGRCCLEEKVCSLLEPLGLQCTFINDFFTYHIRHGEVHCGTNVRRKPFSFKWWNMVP

CAAX prenyl protease 1 = CAAX prenyl protease 1 (Saccharomyces cerevisiae S288c, UniProt P47154); test: Ste24 protease inhibitors, dose response, biochemical, S. cerevisiae, plate reader, cherry-pick (AID 488815)
Sequence of CAAX prenyl protease 1 (P47154 whole entry): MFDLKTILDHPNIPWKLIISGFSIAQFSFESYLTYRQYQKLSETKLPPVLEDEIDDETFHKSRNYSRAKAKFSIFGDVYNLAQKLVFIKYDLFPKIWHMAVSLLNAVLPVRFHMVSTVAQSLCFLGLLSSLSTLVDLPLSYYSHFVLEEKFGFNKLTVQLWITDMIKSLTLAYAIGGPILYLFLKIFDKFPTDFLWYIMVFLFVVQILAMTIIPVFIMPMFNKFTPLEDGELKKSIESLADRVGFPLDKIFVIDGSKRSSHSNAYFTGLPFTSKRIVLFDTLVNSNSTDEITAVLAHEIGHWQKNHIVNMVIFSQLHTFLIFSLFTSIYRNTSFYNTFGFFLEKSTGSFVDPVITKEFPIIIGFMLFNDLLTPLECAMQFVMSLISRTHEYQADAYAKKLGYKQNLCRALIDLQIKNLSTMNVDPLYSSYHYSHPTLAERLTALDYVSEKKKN

CAAX prenyl protease 2 = target: T6, CAAX prenyl protease 2 (Homo sapiens, UniProt Q9Y256); test: human Rce1 protease inhibitors, dose response, biochemical, yeast membranes, quenched-peptide fluorescence, cherry-pick (AID 588849)
T6 sequence (Q9Y256 whole entry): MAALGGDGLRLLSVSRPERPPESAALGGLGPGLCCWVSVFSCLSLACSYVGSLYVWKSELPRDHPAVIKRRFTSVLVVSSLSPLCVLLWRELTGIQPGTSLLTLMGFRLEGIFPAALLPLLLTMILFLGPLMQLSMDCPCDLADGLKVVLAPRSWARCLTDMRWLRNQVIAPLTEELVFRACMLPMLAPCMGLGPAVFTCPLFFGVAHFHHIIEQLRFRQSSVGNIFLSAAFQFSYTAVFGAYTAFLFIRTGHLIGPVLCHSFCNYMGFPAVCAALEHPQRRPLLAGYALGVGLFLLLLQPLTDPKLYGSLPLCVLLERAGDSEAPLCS

Trypsin = Trypsin (Sus scrofa, UniProt P00761); test: porcine trypsin inhibitors, dose response, selectivity assay for Rce1 protease inhibitor project, biochemical, quenched peptide fluorescence, cherry-pick (AID 488789)
Sequence of Trypsin (P00761 whole entry): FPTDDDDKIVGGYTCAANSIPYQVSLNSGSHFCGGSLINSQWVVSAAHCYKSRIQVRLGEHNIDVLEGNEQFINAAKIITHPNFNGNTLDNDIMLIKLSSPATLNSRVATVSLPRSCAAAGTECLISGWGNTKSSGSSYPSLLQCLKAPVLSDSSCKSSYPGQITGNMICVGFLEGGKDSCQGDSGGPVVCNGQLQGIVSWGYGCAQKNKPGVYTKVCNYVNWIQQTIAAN

[9] = target: Long-chain-fatty-acid--AMP ligase FadD28 (Mycobacterium tuberculosis, UniProt P9WQ59); test: Fluorescence polarization aasay to screen for inhibitors that compete for the binding of FadD28 to a bisubstrate Measured in Biochemical System Using Plate Reader - 2147-01_Inhibitor_Dose_CherryPick_Activity.; assay type: functional, Mycobacterium tuberculosis H37Rv
[10] = target: Intestinal-type alkaline phosphatase (Homo sapiens, UniProt P09923); test: inhibition of human intestinal alkaline phosphatase – biochemical, dose response (AID 488876); assay type: functional
Sequence of Intestinal-type alkaline phosphatase (Homo sapiens, UniProt P09923) (P09923 whole entry): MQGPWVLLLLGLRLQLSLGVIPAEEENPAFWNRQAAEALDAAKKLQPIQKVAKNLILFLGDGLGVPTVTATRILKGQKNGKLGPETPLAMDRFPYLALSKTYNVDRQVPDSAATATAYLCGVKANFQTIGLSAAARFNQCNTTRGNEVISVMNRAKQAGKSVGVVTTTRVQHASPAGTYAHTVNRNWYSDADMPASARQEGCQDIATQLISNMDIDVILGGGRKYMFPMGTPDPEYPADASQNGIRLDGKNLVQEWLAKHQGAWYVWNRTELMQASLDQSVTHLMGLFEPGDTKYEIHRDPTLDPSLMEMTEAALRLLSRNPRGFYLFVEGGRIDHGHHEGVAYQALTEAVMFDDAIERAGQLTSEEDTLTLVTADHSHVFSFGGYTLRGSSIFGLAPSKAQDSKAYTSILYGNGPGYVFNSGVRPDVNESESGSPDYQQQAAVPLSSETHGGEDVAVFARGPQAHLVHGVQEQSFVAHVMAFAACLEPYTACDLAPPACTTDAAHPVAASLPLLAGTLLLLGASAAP

[11] = target: Intestinal-type alkaline phosphatase (Mus musculus, UniProt P24822); test: PubChem AID 488785; assay type: functional
Sequence of Intestinal-type alkaline phosphatase (Mus musculus, UniProt P24822) (P24822 whole entry): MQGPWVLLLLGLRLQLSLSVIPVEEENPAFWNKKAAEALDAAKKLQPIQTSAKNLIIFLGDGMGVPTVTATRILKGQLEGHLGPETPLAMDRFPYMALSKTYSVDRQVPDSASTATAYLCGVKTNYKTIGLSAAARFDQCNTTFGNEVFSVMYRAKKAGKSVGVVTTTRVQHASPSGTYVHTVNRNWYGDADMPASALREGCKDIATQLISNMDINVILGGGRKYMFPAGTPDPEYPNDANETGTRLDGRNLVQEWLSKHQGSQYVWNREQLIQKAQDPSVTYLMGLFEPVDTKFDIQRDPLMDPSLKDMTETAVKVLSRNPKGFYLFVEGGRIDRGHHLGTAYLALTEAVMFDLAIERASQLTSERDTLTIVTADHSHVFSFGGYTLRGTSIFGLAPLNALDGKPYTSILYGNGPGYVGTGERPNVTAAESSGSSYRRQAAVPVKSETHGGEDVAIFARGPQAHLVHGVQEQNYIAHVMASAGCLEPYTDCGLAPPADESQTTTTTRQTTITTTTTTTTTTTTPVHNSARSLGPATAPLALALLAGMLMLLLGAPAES

[12] = target: T7, Alkaline phosphatase, tissue-nonspecific isozyme (Homo sapiens, UniProt P05186); test: TNAP enzyme inhibition by screening hits, dose response, selectivity assay for mouse IAP inhibitor project, biochemical, human TNAP, uHTS hits (AID 488906); assay type: functional
T7 sequence (P05186 whole entry): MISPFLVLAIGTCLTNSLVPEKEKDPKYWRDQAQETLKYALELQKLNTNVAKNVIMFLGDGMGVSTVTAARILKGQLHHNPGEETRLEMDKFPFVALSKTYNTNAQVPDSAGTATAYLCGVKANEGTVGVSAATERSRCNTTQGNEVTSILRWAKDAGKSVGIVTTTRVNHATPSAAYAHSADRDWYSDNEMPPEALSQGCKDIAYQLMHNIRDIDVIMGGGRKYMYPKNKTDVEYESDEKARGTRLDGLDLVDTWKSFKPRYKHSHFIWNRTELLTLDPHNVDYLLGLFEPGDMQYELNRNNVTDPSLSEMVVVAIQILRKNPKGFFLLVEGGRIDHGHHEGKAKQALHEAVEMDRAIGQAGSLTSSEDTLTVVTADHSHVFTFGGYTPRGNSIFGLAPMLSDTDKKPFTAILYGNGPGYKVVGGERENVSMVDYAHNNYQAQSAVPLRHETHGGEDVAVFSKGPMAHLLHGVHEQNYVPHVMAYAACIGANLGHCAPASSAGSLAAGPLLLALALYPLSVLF

[13] = target: Dual specificity tyrosine-phosphorylation-regulated kinase 1A (Rattus norvegicus, UniProt Q63470); assay type: biochemical, Homo sapiens
[14] = target: T8, Zinc finger protein mex-5 (Caenorhabditis elegans, UniProt Q9XUB2); test: MEX-5/TCR-2 RNA interaction inhibitors, dose response, biochemical, C. elegans, fluorescence polarization (AID 1960)
T8 sequence (Q9XUB2 whole entry): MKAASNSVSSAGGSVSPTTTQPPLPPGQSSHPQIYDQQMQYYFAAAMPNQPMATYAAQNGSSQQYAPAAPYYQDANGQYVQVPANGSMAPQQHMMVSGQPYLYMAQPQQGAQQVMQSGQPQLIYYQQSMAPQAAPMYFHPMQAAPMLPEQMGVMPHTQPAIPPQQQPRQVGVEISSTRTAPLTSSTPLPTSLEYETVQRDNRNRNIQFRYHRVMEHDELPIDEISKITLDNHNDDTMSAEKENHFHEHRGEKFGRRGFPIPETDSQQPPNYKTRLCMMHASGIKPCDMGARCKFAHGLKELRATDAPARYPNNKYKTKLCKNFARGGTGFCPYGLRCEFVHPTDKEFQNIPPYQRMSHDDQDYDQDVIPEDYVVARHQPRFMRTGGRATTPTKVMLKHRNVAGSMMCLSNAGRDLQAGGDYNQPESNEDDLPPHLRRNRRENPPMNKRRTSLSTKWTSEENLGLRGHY

[15] = target: T9, RNA-binding protein pos-1 (Caenorhabditis elegans, UniProt G5EF15); test: inhibitors of POS-1/mex-3 RNA binding, dose response, biochemical, fluorescence polarization (AID 1964);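 note: purified POS-1 fused to maltose binding protein made in E. coli; potency of compounds blocking POS-1 binding to fluorescent RNA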
T9 sequence (G5EF15 whole entry): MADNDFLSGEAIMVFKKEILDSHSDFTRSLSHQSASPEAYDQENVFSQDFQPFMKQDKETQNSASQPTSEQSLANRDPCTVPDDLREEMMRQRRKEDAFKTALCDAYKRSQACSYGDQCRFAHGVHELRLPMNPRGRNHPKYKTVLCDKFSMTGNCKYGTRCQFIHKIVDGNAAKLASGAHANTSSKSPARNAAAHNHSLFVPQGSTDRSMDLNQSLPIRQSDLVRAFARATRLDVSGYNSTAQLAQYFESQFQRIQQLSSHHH

[16] = target: Lysine-specific demethylase 4A (Homo sapiens, UniProt O75164); test: JMJD2A histone demethylase inhibitors, dose response, selectivity assay for GASC-1 inhibitor project, biochemical, DELFIA europium, cherry-picked samples (AID 488840)
Sequence of Lysine-specific demethylase 4A (O75164 whole entry): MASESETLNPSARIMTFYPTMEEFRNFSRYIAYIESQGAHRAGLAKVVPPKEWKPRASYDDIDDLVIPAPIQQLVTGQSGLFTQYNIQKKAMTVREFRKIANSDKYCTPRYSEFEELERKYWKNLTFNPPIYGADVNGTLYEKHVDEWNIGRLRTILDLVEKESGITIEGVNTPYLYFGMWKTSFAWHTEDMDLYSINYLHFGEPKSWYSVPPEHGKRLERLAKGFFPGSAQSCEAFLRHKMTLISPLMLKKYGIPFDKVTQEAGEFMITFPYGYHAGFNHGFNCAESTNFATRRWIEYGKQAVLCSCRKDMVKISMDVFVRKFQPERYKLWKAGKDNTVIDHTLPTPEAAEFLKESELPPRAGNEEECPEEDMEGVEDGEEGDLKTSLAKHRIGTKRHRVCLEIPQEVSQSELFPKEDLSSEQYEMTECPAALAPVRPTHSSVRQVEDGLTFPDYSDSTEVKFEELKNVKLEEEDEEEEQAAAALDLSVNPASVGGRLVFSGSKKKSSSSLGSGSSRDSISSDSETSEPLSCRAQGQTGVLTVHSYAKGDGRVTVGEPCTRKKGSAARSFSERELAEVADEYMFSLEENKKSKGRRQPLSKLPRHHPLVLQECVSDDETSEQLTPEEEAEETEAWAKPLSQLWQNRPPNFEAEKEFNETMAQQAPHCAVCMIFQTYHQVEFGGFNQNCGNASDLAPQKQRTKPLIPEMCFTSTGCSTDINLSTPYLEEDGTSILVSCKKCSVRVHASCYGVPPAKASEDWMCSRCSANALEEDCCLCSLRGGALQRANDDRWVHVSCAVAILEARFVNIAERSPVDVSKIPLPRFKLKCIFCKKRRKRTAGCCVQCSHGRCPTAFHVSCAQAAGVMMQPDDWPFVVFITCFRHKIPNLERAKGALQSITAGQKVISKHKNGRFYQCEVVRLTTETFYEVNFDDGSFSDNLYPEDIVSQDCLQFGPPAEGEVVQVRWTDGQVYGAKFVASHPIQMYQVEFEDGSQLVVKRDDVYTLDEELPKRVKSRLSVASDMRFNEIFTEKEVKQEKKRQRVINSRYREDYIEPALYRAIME

Question: Which IC50 (Bcl-2-related protein A1) does the source give for `Cc1ccc(NC(=O)C2CCN(c3ncnc4c3nc3n4CCCCC3)CC2)cc1Cl` here?
Answer: Its IC50 is > 20 µM (inactive).

Question: And the IC50 [1]?
Answer: The IC50 was 16 µM (active).

Question: What about the IC50 [2] of the same compound?
Answer: The IC50 was 6.92 µM (active).

Question: How did the IC50 [3] turn out when `c1ccc2c(CN3CCCCC3)csc2c1` was run?
Answer: The IC50 was > 79.4 µM (inactive).

Question: And the EC50 [4]?
Answer: The EC50 was 14.6 µM (active).

Question: And the IC50 [5]?
Answer: The IC50 was > 79.4 µM (inactive).

Question: What about the IC50 [6] of the same compound?
Answer: The IC50 was > 79.4 µM (inactive).

Question: How did the AC50 [7] turn out when `C=CCN1C(=O)NC(=O)/C(=C/c2ccoc2)C1=O` was run?
Answer: Its AC50 is 22.2 µM (active).

Question: `NNC(=O)/C(=C\c1ccco1)NC(=O)c1ccccc1` was tested. Which IC50 [8] did it give?
Answer: Its IC50 is > 100 µM (inactive).

Question: `CCc1nnc(NC(=O)c2ccc(NS(=O)(=O)c3ccccc3)cc2)s1` was tested. Which AC50 (CAAX prenyl protease 1) did it give?
Answer: Its AC50 is 7.02 µM (active).

Question: What about the AC50 (CAAX prenyl protease 2) of the same compound?
Answer: Its AC50 is 5.24 µM (active).

Question: And the AC50 (Trypsin)?
Answer: The AC50 was 45.1 µM (active).

Question: What does the source list for `NS(=O)(=O)c1ccc(-c2ccc(/C=C3\NC(=S)NC3=O)o2)cc1`?
Answer: AC50 [9]: 77.2 µM (active); IC50 [10]: > 100 µM (inactive); IC50 [11]: 9.48 µM (active); IC50 [12]: 35.3 µM (active); AC50 [13]: 18.3 µM (active); EC50 [14]: 10.8 µM (inconclusive); EC50 [15]: 21.7 µM (inconclusive)

Question: `Cc1ccc(N(CC(=O)N2CCn3c2nc2ccccc23)S(=O)(=O)c2c(C)n[nH]c2C)cc1` was tested. Which AC50 [16] did it give?
Answer: Its AC50 is 55.7 µM (active).
